Measured values as given in US4434170A, “Nor-tropane derivatives, and their application in therapeutics” (Delalande S.A., priority 1980, dated 1984).

Assays:
[1] = test system: apomorphinic straightenings; experiment: Antagonism to apomorphinic straightenings (mice); assay type: in vivo; conditions: Mus musculus, ip, read-out: Antagonism to apomorphinic straightenings (mice) ED 50
Text: (§1) I. C. Niemegeers and A. H. M. Jageneau in Arzneim-Forsch. (1960), 10, 1003.

[2] = Acute toxicity (mice); conditions: mouse, in vivo, ip, read-out: Toxicity (mice) LD 50
Protocol: The acute toxicity of the compounds of the invention was also tested intraperitoneally on mice.

[3] = Stair case test (rat); assay type: in vivo; conditions: po, sedative effect
[4] = test system: apomorphine induced stereotypies; experiment: Antagonism to the apomorphine induced stereotypies (rat); assay type: in vivo; conditions: po
Text: as §1

[5] = test system: vomiting induced by apomorphine; experiment: Antiemetic activity (dogs), vomiting induced by apomorphine; assay type: in vivo; conditions: one hour before apomorphine 0.1 mg/kg subcutaneous
[6] = test system: gastric evacuation; experiment: Gastric evacuation test (rat); assay type: in vivo
Protocol: The compounds of formula (I) were administered orally simultaneously with 20 steel balls to wakeful rats starved for 20 hours.

SMILES | ED50 [1] [mg/kg] | LD50 [2] [mg/kg] | other results
COc1c(N)cc(Br)cc1C(=O)N[C@@H]1C[C@H]2CC[C@@H](C1)N2Cc1ccccc1 [compound 106] | 0.053 | 160 | ED50 [3]: 8 mg/kg; ED50 [4]: 1.6 mg/kg
COc1cccc(C(=O)N[C@@H]2C[C@H]3CC[C@@H](C2)N3Cc2ccc(Cl)cc2)c1OC [compound 112] | 0.029 | 220 | –
COc1cccc(C(=O)N[C@@H]2C[C@H]3CC[C@@H](C2)N3Cc2cccc(F)c2)c1OC [compound 113] | 0.016 | 140 | –
CCOc1cccc(C(=O)N[C@@H]2C[C@H]3CC[C@@H](C2)N3Cc2ccccc2)c1OCC [compound 115] | 0.038 | 53 | ED50 [3]: 1.3 mg/kg; ED50 [4]: 0.22 mg/kg
COc1cccc(C(=O)N[C@@H]2C[C@H]3CC[C@@H](C2)N3Cc2cccc(C)c2)c1OC [compound 118] | 0.016 | 90 | –
COc1cccc(C(=O)N[C@@H]2C[C@H]3CC[C@@H](C2)N3Cc2ccc(C)cc2)c1OC [compound 120] | 0.032 | 100 | –
COc1cc(N)c(Br)cc1C(=O)N[C@@H]1C[C@H]2CC[C@@H](C1)N2Cc1ccccc1Cl [compound 121] | 0.024 | 250 | –
CCOc1cc(N)c(Br)cc1C(=O)N[C@@H]1C[C@H]2CC[C@@H](C1)N2Cc1ccc(Cl)cc1 [compound 123] | 0.041 | > 400 | ED50 [3]: 1.7 mg/kg; ED50 [4]: 0.2 mg/kg
CCOc1cc(N)c(Br)cc1C(=O)N[C@@H]1C[C@H]2CC[C@@H](C1)N2Cc1cccc(Cl)c1 [compound 126] | 0.054 | > 400 | –
COc1cc(N)c(Cl)cc1C(=O)N[C@@H]1C[C@H]2CC[C@@H](C1)N2Cc1cccc(F)c1 [compound 127] | 0.007 | 200 | –
COc1cccc(C(=O)N[C@@H]2C[C@H]3CC[C@@H](C2)N3Cc2ccc(Br)cc2)c1OC [compound 129] | 0.008 | 180 | –
COc1cc(N)c(Br)cc1C(=O)N[C@@H]1C[C@H]2CC[C@@H](C1)N2Cc1ccccc1F [compound 131] | 0.013 | 250 | –
COc1cc(N)c(Br)cc1C(=O)N[C@@H]1C[C@H]2CC[C@@H](C1)N2Cc1ccoc1 [compound 132] | 0.12 | 200 | Antiemetic activity: % inhibition of vomiting induced by apomorphine ([5]; 0.01 mg/kg/po): 100%; Gastric evacuation: % animals whose stomach contains no ball after 90 minutes ([6]; 0.6 mg/kg/po): 25%; Gastric evacuation: % animals whose stomach contains no ball after 90 minutes ([6]; 1.3 mg/kg/po): 50%; Gastric evacuation: % animals whose stomach contains no ball after 90 minutes ([6]; 5 mg/kg/po): 75%; Gastric evacuation: % animals whose stomach contains no ball after 90 minutes ([6]; 10 mg/kg/po): 100%
COc1cc(OC)c(OC)c(C(=O)N[C@@H]2C[C@H]3CC[C@@H](C2)N3Cc2ccccc2)c1 [compound 135] | 0.01 | 70 | –
CCOc1c(OC)cccc1C(=O)N[C@@H]1C[C@H]2CC[C@@H](C1)N2Cc1ccccc1 [compound 139] | 0.01 | 76 | ED50 [3]: 0.3 mg/kg; ED50 [4]: 0.06 mg/kg
CCOc1cccc(C(=O)N[C@@H]2C[C@H]3CC[C@@H](C2)N3Cc2ccccc2)c1OC [compound 140] | 0.019 | 70 | –
CCOc1c(OC)cc(OC)cc1C(=O)N[C@@H]1C[C@H]2CC[C@@H](C1)N2Cc1ccccc1 [compound 141] | 0.035 | 115 | –
COc1cc([N+](=O)[O-])cc(C(=O)N[C@@H]2C[C@H]3CC[C@@H](C2)N3Cc2ccccc2)c1OC [compound 142] | 0.012 | 87.5 | –
CCOc1c(OC)cccc1C(=O)N[C@@H]1C[C@H]2CCC[C@@H](C1)N2Cc1ccccc1 [compound 143] | 0.025 | 110 | ED50 [3]: 1.6 mg/kg; ED50 [4]: 0.26 mg/kg
CCOc1c(OC)cccc1C(=O)N[C@@H]1C[C@H]2CC[C@@H](C1)N2Cc1ccc(Cl)c(Cl)c1 [compound 145] | 0.3 | > 400 | –
COc1cc(Br)cc(C(=O)N[C@@H]2C[C@H]3CC[C@@H](C2)N3Cc2ccccc2)c1OC [compound 147] | 0.042 | 165 | Antiemetic activity: % inhibition of vomiting induced by apomorphine ([5]; 0.1 mg/kg/po): 100%; Gastric evacuation: % animals whose stomach contains no ball after 90 minutes ([6]; 0.3 mg/kg/po): 25%; Gastric evacuation: % animals whose stomach contains no ball after 90 minutes ([6]; 0.6 mg/kg/po): 63%; Gastric evacuation: % animals whose stomach contains no ball after 90 minutes ([6]; 10 mg/kg/po): 90%
COc1cccc(C(=O)N[C@@H]2C[C@H]3CCC[C@@H](C2)N3Cc2ccccc2)c1OC [compound 148] | 0.008 | 100 | –
COc1cccc(C(=O)N[C@@H]2C[C@H]3CC[C@@H](C2)N3Cc2ccc(F)cc2)c1OC [compound 155] | 0.005 | 140 | –
COc1cc(SC)cc(C(=O)N[C@@H]2C[C@H]3CC[C@@H](C2)N3Cc2ccccc2)c1OC [compound 168] | 0.28 | 120 | –
COc1cc(N)c(Cl)cc1C(=O)N[C@@H]1C[C@H]2CC[C@@H](C1)N2Cc1cccc(C)c1 [compound 169] | 0.034 | 70 | ED50 [3]: 3.5 mg/kg; ED50 [4]: 0.46 mg/kg
COc1cc(C(C)=O)cc(C(=O)N[C@@H]2C[C@H]3CC[C@@H](C2)N3Cc2ccccc2)c1OC [compound 171] | 0.029 | 115 | –
COc1cccc(C(=O)N[C@@H]2C[C@H]3CC[C@@H](C2)N3Cc2cccc(Cl)c2)c1OC [compound 173] | 0.013 | 160 | –
CCSc1cc(OC)c(OC)c(C(=O)N[C@@H]2C[C@H]3CC[C@@H](C2)N3Cc2ccccc2)c1 [compound 174] | 0.034 | 95 | –
COc1cccc(C(=O)N[C@@H]2C[C@H]3CC[C@@H](C2)N3Cc2ccc(C#N)cc2)c1OC [compound 180] | 0.01 | 275 | –
